Results: ChEMBL document CHEMBL1126813, “Phenyl-substituted prostaglandins: potent and selective antiglaucoma agents” (J Med Chem, 1993)

What was measured:
Monkey = test: Maximum reduction of the intraocular pressure in normotensive monkeys after topical administration of 3 ug of the compound; type: functional, Cercopithecidae, Eye
Felis catus [1] = test: Maximum irritation of cat eyes after topical administration of 5 ug of the compound; type: functional
Felis catus [2] = test: Maximum irritation of cat eyes after topical administration of 3 ug of the compound; type: functional
Felis catus [3] = species: Felis catus; test: Compound concentration which had a contractile effect on iris sphincter muscle of cats; type: functional

Row | Compound | Reduction of IOP (Monkey) | Irritation of eyes (Felis catus [1]) | Irritation of eyes (Felis catus [2]) | EC50 (Felis catus [3])
1 | CC(C)OC(=O)CCC/C=C\C[C@@H]1[C@@H](/C=C/[C@@H](O)CCc2ccccc2)[C@H](O)C[C@@H]1O | 2.9 mmHg | 0.2 arbitrary units | – | –
2 | CC(C)OC(=O)CCC/C=C\C[C@@H]1[C@@H](/C=C/[C@H](O)CCc2ccccc2)[C@H](O)C[C@@H]1O | 1.9 mmHg | 0 arbitrary units | – | –
3 | CCCCC[C@H](O)CC[C@@H]1[C@@H](C/C=C\CCCC(=O)OC(C)C)[C@@H](O)C[C@H]1O | 2.5 mmHg | – | 2.5 arbitrary units | –
4 | CCCCC[C@@H](O)CC[C@@H]1[C@@H](C/C=C\CCCC(=O)OC(C)C)[C@@H](O)C[C@H]1O | 0.7 mmHg | – | 2.3 arbitrary units | –
5 | CC(C)OC(=O)CCC/C=C\C[C@@H]1[C@@H](CC[C@H](O)CCc2ccccc2)[C@H](O)C[C@@H]1O | 1 mmHg | – | 0 arbitrary units | –
6 | O=C(O)CCC/C=C\C[C@@H]1[C@@H](CC[C@@H](O)CCc2ccccc2)[C@H](O)C[C@@H]1O [LATANOPROST ACID] | – | – | – | 710 pM
7 | CC(C)OC(=O)CCC/C=C\C[C@@H]1[C@@H](CC[C@@H](O)CCc2ccccc2)[C@H](O)C[C@@H]1O [LATANOPROST] | 2.6 mmHg | – | 0 arbitrary units | –
